One series addresses Autotaxin (ATX) (Homo sapiens (Human), UniProt Q13822). As to the kind of experiment: ATX bioactivity assay (Amplex Red / choline oxidase / HRP fluorescence, LPC 16:0 substrate). In kind it is biochemical. As to conditions: 30 min room temperature. How it is done:
Effect Example 1 Bioactivity Assay
Preparation and Treatment
Stock Solution Preparation
A 10 mM DMSO stock solution was formulated for each compound. A 30 mM DMSO stock solution was formulated for positive control HA130.
The DMSO stock solutions were stored at room temperature in a desiccator for a short period of time or at −20° C. for a long period of time.
All compounds were serially 3-fold diluted in DMSO from 10 μM to the 10th concentration.
A 1000× positive control (10 mM, HA130) and a 1000× negative control (100% DMSO) were prepared.
The plates were shaken for 5 min.
Preparation of 1× Reaction Buffer:
5× reaction buffer and cold water were mixed well in a volume ratio of 1:4.
Preparation of 20 U/mL Choline Oxidase Stock Solution:
1 tube of choline oxide in a kit was dissolved in 1× reaction buffer. The aliquots were frozen at −20° C.
Preparation of 200 U/mL Horseradish Peroxidase (HRP) Stock Solution:
1 tube of HRP in a kit was dissolved in 1 mL of 1× reaction buffer. The aliquots were frozen at −20° C.
Preparation of 20 mM Amplex® Red Reagent (for Detection) Stock Solution
Amplex Red reagent and DMSO were equilibrated at room temperature. 1 tube of Amplex Red reagent in a kit was dissolved in 200 μL of DMSO.
a) 2×ATX ([…]), 2×HRP ([…]), 2× choline oxidase (0.2 U/mL) were added to 1× reaction buffer.
b) 20 μL of the reaction mixture was added to the plate (PE, 6007270) (refer to step a).
c) 40 nL of diluent was added to the plate using Echo (refer to “Preparation”).
d) 2×LPC (16:0) (60 mM) and 2× Amplex® Red ([…]) were prepared using 1× reaction buffer.
e) 20 μL of the mixture was added to the plate (refer to step d).
f) The plate was shaken for 30 s and allowed to stand at room temperature for 30 min.
g) The plate was examined using Envision, and the procedure was as follows: Excitation at 530 nm; and Emission at 590 nm.
Formula for Calculating % Inhibition (Percent Inhibition Rate) as Follows:
FLU: Fluorescence (fluorescence reading)
FLUpositive: Average fluorescence value in positive control wells (10 μM HA130) in the plate.
FLUvehicle: Average fluorescence value in negative control wells (0.1% DMSO) in the plate.
Calculation of IC50 and Dose-Response Curve:
IC50 of the compounds was calculated via a non-linear regression line (dose-variable slope) fitted using % inhibition and log of compound concentration. The software used was Graphpad 5.0. Y=Bottom+(Top−Bottom)/(1+10^((Log IC50−X)×Hill Slope))
X: log of inhibitor concentration

In the next series the test system is LPA18:2 in mouse plasma. As to the kind of experiment: Inhibition of LPA in mouse plasma (plasma LPA18:2 assay, LC-MS/MS). Format: biochemical, CD1 mice. Particulars: fresh CD1 mouse plasma, LPA18:2, 37° C. for 120 min. The procedure: Effect Example 2. Inhibition of LPA in Mouse Plasma by Compounds
20 mM stock solutions of the compounds were prepared with DMSO and then diluted to 1 mM, which was subjected to a serial 3-fold dilution to yield 10 working solutions.
Collection of Fresh Mouse Plasma:
CD1 mice were euthanized by CO2 inhalation. Approximately 1 mL of whole blood was taken by cardiac puncture, with EDTA-K2 for anticoagulation. The blood was centrifuged at 3220 g for 10 min at 4° C. for plasma collection.
Reactions were performed in a 96-well plate, and the samples were tested in duplicate. 1 μL of each working solution was added to 100 μL of plasma, with the final concentrations of […]. 1 μL of DMSO was added to plasma to serve as blank. The samples were incubated in a water bath at 37° C. for 120 min, and 600 μL of 10 μM tolbutamide in methanol was added to terminate the reaction. Tolbutamide also served as an internal standard. After 5 min of vortex mixing, the samples were centrifuged at 3220 g for 45 min at 4° C. to precipitate the protein. 100 μL of the supernatant was transferred to a new plate, diluted with water based on LC-MS response and peak shapes, mixed well and analyzed by LC-MS/MS.
LPA18:2 was quantified using peak area ratio (LPA18:2/internal standard), requiring no standard curve. For test compounds of different concentrations, LPA data was represented by a percentage decrease of LPA: 100-[((LPA peak area ratio of compound)/(LPA peak area ratio of control))×100]. IC50 was calculated using Graphpad Prism 6.0 software.

The next series addresses CYP3A4 (Homo sapiens (Human), UniProt P08684). Put plainly: Time-dependent inhibition of CYP3A4 (TDI assay, human liver microsomes). In kind it is in vitro ADME. As to conditions: 10 μM, human liver microsomes, Midazolam substrate, 30 min with NADPH vs 0 min. How it is done: Effect Example 3. Time-Dependent Inhibition of CYP3A4
1. Preheating potassium phosphate buffer (K-buffer), pH 7.4: 100 mM potassium phosphate buffer (K-buffer) was prepared by mixing 9.5 mL of solution A with 40.5 mL of solution B, diluting to 500 mL with ultrapure water, and then adjusting to pH 7.4 with KOH or H3PO4, wherein the solution A (1M potassium dihydrogenphosphate) was prepared by dissolving 136.5 g of potassium dihydrogenphosphate in […] of ultrapure water.
2. Preparation of human liver microsome suspension (1.3 mg/mL, 1.3×, stock: 20 mg/mL): 100 μL of human liver microsome suspension (20 mg/mL) was added into […] of K-buffer.
3. Preparation of NADPH solution (4.167 mg/mL, 5 mM): 8.3 mg of NADPH was added into 2 mL of buffer.
4. Preparation of substrate solution (1.5× final): 1.5 μL of 10 mM Midazolam was added to 998.5 μL of K-buffer to yield the substrate mixture.
5. Preparation of 100× test compound, reference and blank control solutions: 3 μL of 10 mM stock solution of test compound was added to 27 μL of ACN; 3 μL of positive control stock solution was added to 27 μL of ACN; and 3 μL of DMSO was added to 27 μL of ACN to serve as blank control.
6. Primary preheating system: An NADPH-free system for 0 min incubation: 78 μL of 1.3× human liver microsome solution (step 2) was mixed with 1 μL of the 100× stock solutions of positive control, test compound, or blank control (step 5); A system containing NADPH for 30 min incubation: 78 μL of 1.3× human liver microsome solution (step 2) was mixed with 1 μL of the 100× stock solutions of positive control, test compound, or blank control (step 5).
7. Secondary preheating system: 150 μL of the substrate solution prepared in step 4 was added into a deep well plate together with the NADPH solution from step 3
8. The samples were preheated for 10 min in a 37° C. water bath.
9. Reaction procedure: (1) reaction for 0 min: 21 μL of K-buffer was added to the primary preheating system and mixed well without incubation; 20 μL of the mixture was immediately transferred into the plate of the secondary preheating system; after mixing, the secondary system was incubated in a 37° C. water bath for 15 min, and 60 μL of the reaction mixture was added into 120 μL of acetonitrile containing internal standard to terminate the reaction; and (2) reaction for 30 min: 21 μL of NADPH was added into the primary preheating system for a 30-min incubation after mixing; 20 μL of the mixture was added into the secondary preheating system prior to mixing; the mixture was incubated in a 37° C. water bath for 15 min, and 60 μL of the reaction mixture was added into 120 μL of acetonitrile containing internal standard to terminate the reaction.
10. After termination, the samples were shaken on a shaker at 600 rpm for 10 min and centrifuged at 5594 g for 15 min prior to LC-MS/MS analysis.
In general terms: Liver microsomes are a subcellular fraction often used to study metabolism.

CYP3A4, sequence (P08684 whole entry): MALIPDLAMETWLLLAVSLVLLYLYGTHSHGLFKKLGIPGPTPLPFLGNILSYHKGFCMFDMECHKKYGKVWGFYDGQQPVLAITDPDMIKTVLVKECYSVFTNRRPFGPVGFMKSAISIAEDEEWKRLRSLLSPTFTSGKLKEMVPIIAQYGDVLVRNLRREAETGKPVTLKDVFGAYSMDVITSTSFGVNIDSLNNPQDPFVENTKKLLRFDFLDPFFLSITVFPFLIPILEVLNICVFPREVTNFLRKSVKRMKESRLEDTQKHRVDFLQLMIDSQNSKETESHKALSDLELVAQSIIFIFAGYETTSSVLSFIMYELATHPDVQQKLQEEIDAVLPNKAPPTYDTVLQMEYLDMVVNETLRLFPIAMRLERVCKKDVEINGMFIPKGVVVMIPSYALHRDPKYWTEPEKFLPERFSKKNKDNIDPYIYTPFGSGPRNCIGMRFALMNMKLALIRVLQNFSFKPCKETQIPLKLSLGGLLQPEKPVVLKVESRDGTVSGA

The term IC50 denotes the concentration that inhibits the measured activity by half. Read a low IC50 as greater potency. Take `CCc1nc2ncc(N3CCN(CC(=O)N4CC(O)C4)CC3)cn2c1N(CC)c1nc(-c2ccc(F)cc2)c(C#N)s1` [Compound S-0058, 2-(ethyl(2-ethyl-6-(4-(2-(3-hydroxyazetidin-1-yl)-2-oxoethyl)piperazin-1-yl)imidazo[1,2-a]pyrimidin-3-yl)amino)-4-(4-fluorophenyl)thiazole-5-carbonitrile]: the IC50 was 40 nM against Autotaxin (ATX) and 373 nM in the series on LPA18:2 in mouse plasma.
For the molecule `CCN(c1nc(-c2ccc(F)cc2)cs1)c1c2nc(N3CCN(CC(=O)N4CC(O)C4)CC3)cc(C)c2nn1CC` [Compound S-0151, 2-(4-(2-ethyl-3-(ethyl(4-(4-fluorophenyl)thiazol-2-yl)amino)-7-methyl-2H-pyrazolo[4,3-b]pyridin-5-yl)piperazin-1-yl)-1-(3-hydroxyazetidin-1-yl) ethanone], in the series on LPA18:2 in mouse plasma, the 50% inhibitory concentration (IC50) came out at 1400 nM.
In the case of `CCn1nc2c(F)cc(N3CCN(CC(=O)N4CC(O)C4)CC3C(F)(F)F)cc2c1N(C)c1nc(-c2ccc(F)cc2)c(C#N)s1` (single isomer, unassigned) [Compound S-0131B, 2-((2-ethyl-7-fluoro-5-(4-(2-(3-hydroxyazetidin-1-yl)-2-oxoethyl)-2-(trifluoromethyl)piperazin-1-yl)-2H-indazol-3-yl) (methyl)amino)-4-(4-fluorophenyl)thiazole-5-carbonitrile], the IC50 against Autotaxin (ATX) came to 36 nM; in the series on LPA18:2 in mouse plasma, 91 nM.
The molecule `CCc1nc2c(C)cc(N3CCN(CC(=O)N4CC(O)C4)CC3)cn2c1N(C)c1nc(-c2ccc(F)cc2)c(C#N)s1` [GLPG1690, reference compound] displayed an IC50 in the series with LPA18:2 in mouse plasma of 1060 nM. At CYP3A4, the “CYP3A4 TDI % @ 10 μM” value is 21.57%.
For the molecule `CCn1nc2c(F)cc(N3CCN(CC(=O)N4CC(O)C4)CC3C(F)(F)F)cc2c1N(C)c1nc(-c2ccc(F)cc2)c(C#N)s1` (single isomer, unassigned) [Compound S-0131A, 2-((2-ethyl-7-fluoro-5-(4-(2-(3-hydroxyazetidin-1-yl)-2-oxoethyl)-2-(trifluoromethyl)piperazin-1-yl)-2H-indazol-3-yl)(methyl)amino)-4-(4-fluorophenyl)thiazole-5-carbonitrile], the 50% inhibitory concentration (IC50) against Autotaxin (ATX) turned out to be 47 nM; in the series on LPA18:2 in mouse plasma, 236 nM.
Turning to `CCN(c1nc(-c2ccc(F)cc2)c(C#N)s1)c1c2cc(N3CCN(CC(=O)N4CC(O)C4)CC3C(F)(F)F)cc(F)c2nn1CC` (single isomer, unassigned) [Compound S-0134A, 2-(ethyl(2-ethyl-7-fluoro-5-(4-(2-(3-hydroxyazetidin-1-yl)-2-oxoethyl)-2-(trifluoromethyl)piperazin-1-yl)-2H-indazol-3-yl)amino)-4-(4-fluorophenyl)thiazole-5-carbonitrile], the IC50 against Autotaxin (ATX) is 20 nM; in the series with LPA18:2 in mouse plasma, 116 nM.
As for `CCN(c1nc(-c2ccc(F)cc2)c(C#N)s1)c1c2cc(N3CCN(CC(=O)N4CC(O)C4)[C@@H](C(F)(F)F)C3)cc(F)c2nn1CC` [Compound S-0135B, (R)-2-(ethyl (2-ethyl-7-fluoro-5-(4-(2-(3-hydroxyazetidin-1-yl)-2-oxoethyl)-3-(trifluoromethyl)piperazin-1-yl)-2H-indazol-3-yl)amino)-4-(4-fluorophenyl)thiazole-5-carbonitrile], the concentration for half-maximal inhibition (IC50) in the series on LPA18:2 in mouse plasma is 167 nM.
With `CCN(c1nc(-c2ccc(F)cc2)c(C#N)s1)c1c2cc(N3CCN(CC(=O)N4CC(O)C4)[C@H](C(F)(F)F)C3)cc(F)c2nn1CC` [Compound S-0135A, (S)-2-(ethyl(2-ethyl-7-fluoro-5-(4-(2-(3-hydroxyazetidin-1-yl)-2-oxoethyl)-3-(trifluoromethyl)piperazin-1-yl)-2H-indazol-3-yl)amino)-4-(4-fluorophenyl)thiazole-5-carbonitrile], the results for the IC50 against Autotaxin (ATX) and in the series with LPA18:2 in mouse plasma were 132 nM and 442 nM, respectively.
`CCN(c1nc(-c2ccc(F)cc2)cs1)c1c2cc(N3CCN(CC(=O)N4CC(O)C4)CC3)cc(F)c2nn1CC` [Compound S-0149, 2-(4-(2-ethyl-3-(ethyl(4-(4-fluorophenyl)thiazol-2-yl)amino)-7-fluoro-2H-indazol-5-yl)piperazin-1-yl)-1-(3-hydroxyazetidin-1-yl)ethanone] had a half-inhibitory concentration (IC50) in the series on LPA18:2 in mouse plasma of 160 nM.
In the case of `CCn1nc2c(C)cc(N3CCN(CC(=O)N4CC(O)C4)CC3)nc2c1N(CCF)c1nc(-c2ccc(F)cc2)c(C#N)s1` [Compound S-0144, 2-((2-ethyl-5-(4-(2-(3-hydroxyazetidin-1-yl)-2-oxoethyl)piperazin-1-yl)-7-methyl-2H-pyrazolo[4,3-b]pyridin-3-yl)(2-fluoroethyl)amino)-4-(4-fluorophenyl)thiazole-5-carbonitrile], the IC50 is 27 nM on Autotaxin (ATX) and 67 nM in the series on LPA18:2 in mouse plasma.
Turning to `CCn1nc2c(C)cc(N3CCN(CC(=O)N4CC(O)C4)CC3)nc2c1N(CC(F)F)c1nc(-c2ccc(F)cc2)c(C#N)s1` [Compound S-0141, 2-((2,2-difluoroethyl)(2-ethyl-5-(4-(2-(3-hydroxyazetidin-1-yl)-2-oxoethyl)piperazin-1-yl)-7-methyl-2H-pyrazolo[4,3-b]pyridin-3-yl)amino)-4-(4-fluorophenyl)thiazole-5-carbonitrile], the 50% inhibitory concentration (IC50) was determined as 43 nM at Autotaxin (ATX) and 153 nM with LPA18:2 in mouse plasma.

(Values after patent US11591342B2, “Heterocyclic compound, application thereof and pharmaceutical composition comprising same” (SUZHOU SINOVENT PHARMACEUTICALS CO., LTD., priority 2018, dated 2023).)
